From patent publication US10758534B2 (Vertex Pharmaceuticals Incorporated, priority 2014, dated 2020)

Each compound was assayed against T1, F508del (Homo sapiens, UniProt P13569, DEL508-508) (assay: Protocol 1: membrane potential optical assay (FLIPR III, voltage sensing dye), identification of potentiator compounds). Conditions: Table 3, compounds of Table 1.
T1 construct: expressed in transfected cells
Format: cell-based
Method in brief: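 Gating potentiation is read as a membrane-potential fluorescence change (FLIPR III, voltage-sensing dye) after one forskolin addition under a Cl− gradient, with gluconate replacing chloride, pH 7.4. Cells are F508del-expressing NIH3T3 mouse fibroblasts held 24 h at 27 °C and exposed to compound before dye loading.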

T1 sequence (P13569 with tags, fused parts or gaps DEL508-508): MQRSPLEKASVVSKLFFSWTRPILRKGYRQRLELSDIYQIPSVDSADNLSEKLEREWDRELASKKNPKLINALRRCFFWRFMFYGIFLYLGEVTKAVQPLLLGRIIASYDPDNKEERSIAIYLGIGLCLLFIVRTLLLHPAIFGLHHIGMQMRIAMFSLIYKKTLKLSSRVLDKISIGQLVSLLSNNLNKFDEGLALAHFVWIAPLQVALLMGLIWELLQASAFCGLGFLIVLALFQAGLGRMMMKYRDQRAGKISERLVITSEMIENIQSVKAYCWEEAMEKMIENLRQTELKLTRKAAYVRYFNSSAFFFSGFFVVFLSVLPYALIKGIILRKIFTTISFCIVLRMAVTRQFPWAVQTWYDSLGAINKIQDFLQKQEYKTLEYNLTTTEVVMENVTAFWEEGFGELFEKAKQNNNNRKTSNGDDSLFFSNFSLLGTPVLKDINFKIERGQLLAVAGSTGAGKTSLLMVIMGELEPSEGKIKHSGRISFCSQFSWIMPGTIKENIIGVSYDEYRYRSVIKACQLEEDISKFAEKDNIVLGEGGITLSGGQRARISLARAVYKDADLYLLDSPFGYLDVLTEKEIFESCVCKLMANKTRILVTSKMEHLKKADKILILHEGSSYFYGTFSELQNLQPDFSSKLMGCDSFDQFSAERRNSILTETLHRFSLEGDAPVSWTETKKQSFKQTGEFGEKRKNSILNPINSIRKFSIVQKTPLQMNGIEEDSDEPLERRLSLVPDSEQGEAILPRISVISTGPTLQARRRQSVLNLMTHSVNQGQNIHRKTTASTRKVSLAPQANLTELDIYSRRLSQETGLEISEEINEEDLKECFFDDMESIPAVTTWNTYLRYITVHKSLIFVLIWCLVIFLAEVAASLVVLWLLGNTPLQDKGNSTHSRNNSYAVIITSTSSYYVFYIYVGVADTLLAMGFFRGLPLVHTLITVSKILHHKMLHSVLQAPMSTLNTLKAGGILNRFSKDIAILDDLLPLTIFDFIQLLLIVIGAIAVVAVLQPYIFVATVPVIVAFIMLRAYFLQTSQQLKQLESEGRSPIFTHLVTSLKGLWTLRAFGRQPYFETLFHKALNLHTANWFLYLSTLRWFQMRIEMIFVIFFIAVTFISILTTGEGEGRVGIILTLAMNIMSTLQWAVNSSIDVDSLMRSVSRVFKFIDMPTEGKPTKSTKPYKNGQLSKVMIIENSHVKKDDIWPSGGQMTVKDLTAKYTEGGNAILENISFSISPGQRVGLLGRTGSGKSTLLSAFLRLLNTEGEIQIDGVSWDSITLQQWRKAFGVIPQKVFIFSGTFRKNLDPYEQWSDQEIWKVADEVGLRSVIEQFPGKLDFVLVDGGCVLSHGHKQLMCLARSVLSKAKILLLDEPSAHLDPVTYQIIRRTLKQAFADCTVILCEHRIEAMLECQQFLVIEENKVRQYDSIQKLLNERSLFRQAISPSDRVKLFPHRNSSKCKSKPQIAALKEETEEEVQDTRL

Row | EC30 | SMILES
1 | +++ (“+++” means <3 uM) | CC(C)(C)c1ccc(C(=O)NS(=O)(=O)c2cccc(N)n2)c(N2CCC[C@@H](c3ccccc3)C2)n1 [Compound 1261, N-[(6-amino-2-pyridyl)sulfonyl]-6-tert-butyl-2-[(3S)-3-phenyl-1-piperidyl]pyridine-3-carboxamide]
2 | ++ (“++” means between 3 uM and 10 uM) | CC1CN(c2nc(-c3ccnc(C(C)C)c3)ccc2C(=O)NS(=O)(=O)c2cccc(N)n2)C(C)(C)C1 (centres unmarked) [Compound 1262, N-[(6-amino-2-pyridyl)sulfonyl]-6-(2-isopropyl-4-pyridyl)-2-(2,2,4-trimethylpyrrolidin-1-yl)pyridine-3-carboxamide]
3 | ++ (“++” means between 3 uM and 10 uM) | Cc1ccc(-c2nc(C(C)(C)C)ccc2C(=O)NS(=O)(=O)c2cccc(O)c2)cc1 [Compound 1265, 6-tert-butyl-N-(3-hydroxyphenyl)sulfonyl-2-(p-tolyl)pyridine-3-carboxamide]
4 | +++ (“+++” means <3 uM) | CCOc1ccc(-c2ccc(C(=O)NS(=O)(=O)c3cccc(N)n3)c(Oc3c(C)cc(C)cc3C)n2)cc1OC [Compound 1268, N-[(6-amino-2-pyridyl)sulfonyl]-6-(4-ethoxy-3-methoxy-phenyl)-2-(2,4,6-trimethylphenoxy)pyridine-3-carboxamide]
5 | +++ (“+++” means <3 uM) | C[C@@H]1CC[C@H](C)N1c1nc(-c2ccc(OCC(C)(C)C)nc2)ccc1C(=O)NS(=O)(=O)c1cccc(N)n1 [Compound 1270, N-[(6-amino-2-pyridyl)sulfonyl]-6-[6-(2,2-dimethylpropoxy)-3-pyridyl]-2-[(2S,5R)-2,5-dimethylpyrrolidin-1-yl]pyridine-3-carboxamide]
6 | +++ (“+++” means <3 uM) | CC(C)Oc1ccc(-c2ccc(C(=O)NS(=O)(=O)c3cccc(N)n3)c(N3CCCC3C)n2)cn1 (centres unmarked) [Compound 1271, N-[(6-amino-2-pyridyl)sulfonyl]-6-(6-isopropoxy-3-pyridyl)-2-(2-methylpyrrolidin-1-yl)pyridine-3-carboxamide]
7 | +++ (“+++” means <3 uM) | Cc1ccnc(-c2ccc(C(=O)NS(=O)(=O)c3cccc(N)n3)c(Oc3c(C)cc(C)cc3C)n2)c1 [Compound 1272, N-[(6-amino-2-pyridyl)sulfonyl]-6-(4-methyl-2-pyridyl)-2-(2,4,6-trimethylphenoxy)pyridine-3-carboxamide]
8 | +++ (“+++” means <3 uM) | Cc1cc(C)c(CN2Cc3ccccc3C2(C)C(=O)NS(=O)(=O)c2cccc(N)c2)c(C)c1 (centres unmarked) [Compound 1273, N-(3-aminophenyl)sulfonyl-1-methyl-2-[(2,4,6-trimethylphenyl)methyl]isoindoline-1-carboxamide]
9 | +++ (“+++” means <3 uM) | CC(C)Oc1ccc(-c2ccc(C(=O)NS(=O)(=O)c3cccc(N)n3)c(N3CCCC(C(F)(F)F)C3)n2)cn1 (centres unmarked) [Compound 1274, N-[(6-amino-2-pyridyl)sulfonyl]-6-(6-isopropoxy-3-pyridyl)-2-[3-(trifluoromethyl)-1-piperidyl]pyridine-3-carboxamide]
10 | +++ (“+++” means <3 uM) | Cc1cc(C)c(Oc2nc(-c3cnc(N4CCCC4)nc3)ccc2C(=O)NS(=O)(=O)c2cccc(N)n2)c(C)c1 [Compound 1275, N-[(6-amino-2-pyridyl)sulfonyl]-6-(2-pyrrolidin-1-ylpyrimidin-5-yl)-2-(2,4,6-trimethylphenoxy)pyridine-3-carboxamide]
11 | ++ (“++” means between 3 uM and 10 uM) | Cc1cc(C)c(Oc2nc(-c3ccc4c(cnn4C)c3)ccc2C(=O)NS(=O)(=O)c2cccc(N)n2)c(C)c1 [Compound 1276, N-[(6-amino-2-pyridyl)sulfonyl]-6-(1-methylindazol-5-yl)-2-(2,4,6-trimethylphenoxy)pyridine-3-carboxamide]
12 | +++ (“+++” means <3 uM) | COc1cc(-c2ccc(C(=O)NS(=O)(=O)c3cccc(N)n3)c(Oc3c(C)cc(C)cc3C)n2)c(F)cn1 [Compound 1277, N-[(6-amino-2-pyridyl)sulfonyl]-6-(5-fluoro-2-methoxy-4-pyridyl)-2-(2,4,6-trimethylphenoxy)pyridine-3-carboxamide]
13 | + (“+” means greater than 10 uM) | Cc1cc(C)c(Oc2nc(-c3ccccn3)ccc2C(=O)NS(=O)(=O)c2cccc(N)n2)c(C)c1 [Compound 1278, N-[(6-amino-2-pyridyl)sulfonyl]-6-(2-pyridyl)-2-(2,4,6-trimethylphenoxy)pyridine-3-carboxamide]
14 | +++ (“+++” means <3 uM) | Cc1cc(C)c(Oc2nc(C3CCCC3)ccc2C(=O)NS(=O)(=O)c2cccc(N)n2)c(C)c1 [Compound 1280, N-[(6-amino-2-pyridyl)sulfonyl]-6-cyclopentyl-2-(2,4,6-trimethylphenoxy)pyridine-3-carboxamide]
15 | +++ (“+++” means <3 uM) | CC(C)Oc1ccc(-c2ccc(C(=O)NS(=O)(=O)c3cccc(N)n3)c(N3CCCC(C)(C)C3)n2)cn1 [Compound 1283, N-[(6-amino-2-pyridyl)sulfonyl]-2-(3,3-dimethyl-1-piperidyl)-6-(6-isopropoxy-3-pyridyl)pyridine-3-carboxamide]
16 | +++ (“+++” means <3 uM) | COc1nccc(-c2ccc(C(=O)NS(=O)(=O)c3cccc(N)n3)c(Oc3c(C)cc(C)cc3C)n2)c1Cl [Compound 1284, N-[(6-amino-2-pyridyl)sulfonyl]-6-(3-chloro-2-methoxy-4-pyridyl)-2-(2,4,6-trimethylphenoxy)pyridine-3-carboxamide]
17 | +++ (“+++” means <3 uM) | CC(C)Oc1cc(F)cc(-c2ccc(C(=O)NS(=O)(=O)c3ccn[nH]3)c(N3[C@H](C)CC[C@@H]3C)n2)c1 [Compound 1285, 2-[(2S,5R)-2,5-dimethylpyrrolidin-1-yl]-6-(3-fluoro-5-isopropoxy-phenyl)-N-(1H-pyrazol-5-ylsulfonyl)pyridine-3-carboxamide]
18 | +++ (“+++” means <3 uM) | COc1ccc(C)c(-c2nc(N3CC(C)CC3(C)C)c(C(=O)NS(=O)(=O)c3cccc(N)n3)cc2C)c1 (centres unmarked) [Compound 1287, N-[(6-amino-2-pyridyl)sulfonyl]-6-(5-methoxy-2-methyl-phenyl)-5-methyl-2-(2,2,4-trimethylpyrrolidin-1-yl)pyridine-3-carboxamide]
19 | ++ (“++” means between 3 uM and 10 uM) | CC(C)Cn1cc(-c2ccc(C(=O)NS(=O)(=O)c3nccnc3N)c(N3CCC(C)CC3)n2)cn1 [Compound 1288, N-(3-aminopyrazin-2-yl)sulfonyl-6-(1-isobutylpyrazol-4-yl)-2-(4-methyl-1-piperidyl)pyridine-3-carboxamide]

Row | SMILES | EC30
20 | CC(C)COc1cc(F)cc(-c2ccc(C(=O)NS(=O)(=O)c3cccc(N)n3)c(N3CCC[C@H]3c3ccccc3)n2)c1 [Compound 1260, N-[(6-amino-2-pyridyl)sulfonyl]-6-(3-fluoro-5-isobutoxy-phenyl)-2-[(2S)-2-phenylpyrrolidin-1-yl]pyridine-3-carboxamide] | +++ (“+++” means <3 uM)
21 | CC(C)COc1cc(F)cc(-c2ccc(C(=O)NS(=O)(=O)c3cccc(N)n3)c(OC3CCCCCC3)n2)c1 [Compound 1263, N-[(6-amino-2-pyridyl)sulfonyl]-2-(cycloheptoxy)-6-(3-fluoro-5-isobutoxy-phenyl)pyridine-3-carboxamide] | +++ (“+++” means <3 uM)
22 | CC(C)COc1cc(F)cc(-c2ccc(C(=O)NS(=O)(=O)c3cccc(N)n3)c(N3CCCC4(CCC4)C3)n2)c1 [Compound 1264, N-[(6-amino-2-pyridyl)sulfonyl]-2-(8-azaspiro[3.5]nonan-8-yl)-6-(3-fluoro-5-isobutoxy-phenyl)pyridine-3-carboxamide] | +++ (“+++” means <3 uM)
23 | CC(C)COc1cc(-c2ccc(C(=O)NS(=O)(=O)c3cccc(N)n3)c(N3CCC(C)CC3)n2)ccc1Cl [Compound 1266, N-[(6-amino-2-pyridyl)sulfonyl]-6-(4-chloro-3-isobutoxy-phenyl)-2-(4-methyl-1-piperidyl)pyridine-3-carboxamide] | +++ (“+++” means <3 uM)
24 | CC(C)COc1cc(F)cc(-c2ccc(C(=O)NS(=O)(=O)c3cccc(N)n3)c(N3CCOCC3(C)C)n2)c1 [Compound 1267, N-[(6-amino-2-pyridyl)sulfonyl]-2-(3,3-dimethylmorpholin-4-yl)-6-(3-fluoro-5-isobutoxy-phenyl)pyridine-3-carboxamide] | +++ (“+++” means <3 uM)
25 | Cc1cc(C(=O)NS(=O)(=O)c2cccc(N)n2)c(N2CC(C)CC2(C)C)nc1-c1cc(F)cc(OCC(C)C)c1 (centres unmarked) [Compound 1269, N-[(6-amino-2-pyridyl)sulfonyl]-6-(3-fluoro-5-isobutoxy-phenyl)-5-methyl-2-(2,2,4-trimethylpyrrolidin-1-yl)pyridine-3-carboxamide] | +++ (“+++” means <3 uM)
26 | CC(C)COc1cc(F)cc(-c2ccc(C(=O)NS(=O)(=O)c3cccc(N)n3)c(N3CCC(C)(C)CC3)n2)c1 [Compound 1279, N-[(6-amino-2-pyridyl)sulfonyl]-2-(4,4-dimethyl-1-piperidyl)-6-(3-fluoro-5-isobutoxy-phenyl)pyridine-3-carboxamide] | +++ (“+++” means <3 uM)
27 | CC(C)COc1cc(F)cc(-c2ccc(C(=O)NS(=O)(=O)c3ccn[nH]3)c(NC3CCCC(C(F)(F)F)C3)n2)c1 (centres unmarked) [Compound 1281, 6-(3-fluoro-5-isobutoxy-phenyl)-N-(1H-pyrazol-5-ylsulfonyl)-2-[[3-(trifluoromethyl)cyclohexyl]amino]pyridine-3-carboxamide] | ++ (“++” means between 3 uM and 10 uM)
28 | CC(C)COc1cc(F)cc(-c2ccc(C(=O)NS(=O)(=O)c3ccn[nH]3)c(N3CCCC34CCC4)n2)c1 [Compound 1282, 2-(8-azaspiro[3.4]octan-8-yl)-6-(3-fluoro-5-isobutoxy-phenyl)-N-(1H-pyrazol-5-ylsulfonyl)pyridine-3-carboxamide] | +++ (“+++” means <3 uM)
29 | CC(C)COc1cc(F)cc(-c2ccc(C(=O)NS(=O)(=O)c3ccn[nH]3)c(N3CCCC(C4CC4)C3)n2)c1 (centres unmarked) [Compound 1286, 2-(3-cyclopropyl-1-piperidyl)-6-(3-fluoro-5-isobutoxy-phenyl)-N-(1H-pyrazol-5-ylsulfonyl)pyridine-3-carboxamide] | +++ (“+++” means <3 uM)
